Laboratory results reported in patent publication US20240101584A1, “TARGETED DELIVERY OF 1,2,4,5 TETRAOXANE COMPOUNDS AND THEIR USES” (Westlake University, priority 2021, published 2024).
Like-named read-outs stand apart in the source and are kept apart here.

Key:
[1] = system: Jurkat cells; test: MTT viability assay, Jurkat cells; type: cell-based; conditions: Homo sapiens, 48 h incubation, mean, n = 3, read-out: IC50 against Jurkat cells
[2] = system: NIH3T3 cells; test: MTT viability assay, non-cancerous NIH3T3 cells; type: cell-based; conditions: Mus musculus, NIH3T3
How it was run: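 The same panel also contained HepG2, HCT116, non-cancerous NIH3T3 and MDCK cells. Here, bEnd.3 is a mouse brain line, Hela is human cervix, MDA-MB-231 is mammary breast cancer and T47D is mammary ductal.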

[3] = system: MDCK cells; test: MTT viability assay, MDCK cells; type: cell-based, dog; conditions: Canis lupus familiaris, MDCK, 48 h incubation, mean, n = 3, read-out: IC50 against MDCK cells
Description: (§1) The anticancer activities of the exemplary compounds listed in Example 1 were tested against human cervix Hela cells, mammary breast cancer MDA-MB-231 cells, human hepatocellular HepG2 cells, human colorectal HCT116 cells, mammary ductal T47D cells, non-cancerous NIH3T3 cells, dog's kidney MDCK cells, and mouse brain bEnd.3 cells, respectively.

[4] = system: Huh7; test: Viability IC50, Huh7 cells; type: cell-based; conditions: Homo sapiens, Huh-7; Table 12a
[5] = system: U2OS; test: Viability IC50, U2OS cells; type: cell-based; conditions: Homo sapiens, Table 12a
[6] = system: HEYA8 CSC xenograft tumors; test: Mouse xenograft ovarian tumors (HEYA8 CSC); type: in vivo; conditions: for tolerability of regimens in tested animals / abnormal behavior or weight loss during treatment period: HEYA8 CSC xenograft mice; for abnormal behavior or weight loss during treatment period: entire treatment period
Description: FIG. 7A is a graph showing the tumor volume of xenograft tumors versus time after s.c. injection of DMSO, PTX, compound 37b, or compound 48. Nude mice were injected s.c. with HEYA8 CSC cells (10^6) and randomly allocated to one of the six treatment groups (n=4): (i) DMSO, (ii) Paclitaxel (PTX), 5 mg/kg, (iii) compound 37b, 5 mg/kg, (iv) compound 37b, 10 mg/kg, (v) compound 48, 5 mg/kg, or (vi) compound 48, 10 mg/kg. When control animals (DMSO) began to appear tumor ulceration (25 days), all animals in the experiment were sacrificed and photographed. FIG. 7B are photographs of the tumor from sacrificed animals of different treatment groups after 25 days. FIG. 7C is a graph showing the tumor weight of xenograft tumors versus time after s.c. injection of DMSO, PTX, compound 37b, or compound 48. Data are shown as mean±SEM. * P≤0.05 versus DMSO group.
The cytotoxicity of 1,2,4,5-tetraoxanes 48 and 37b on cancer stem cell (CSC) model of HEY A8 CSCs and mouse xenograft ovarian tumors (FIG. 2) was examined. Nude mice were injected s.c. with HEYA8 CSC cells […] and randomly allocated to one of the six treatment groups (n=4): (i) DMSO, (ii) Paclitaxel (PTX), 5 mg/kg, (iii) compound 37b, 5 mg/kg, (iv) compound 37b, 10 mg/kg, (v) compound 48, 5 mg/kg, and (vi) compound 48, 10 mg/kg. When control animals (DMSO) began to appear tumor ulceration (25 days), all animals in the experiment were sacrificed and photographed. It is known that ovarian CSCs have resistance to Taxol, so Taxol was used as negative control.

[7] = system: MDA-MB-231 xenograft tumors; test: Mouse xenograft breast tumors (MDA-MB-231); type: in vivo, Nude mice; conditions: for histopathological observations of liver, heart, kidney, spleen and lungs: H&E staining, compared to the controls
Description: FIG. 12A is a graph showing the tumor volume of xenograft tumors versus time after s.c. injection of DMSO, PTX, compound 37b, or compound 48. Nude mice were injected s.c. with MDA-MB-231 cells (10^6) and randomly allocated to one of the six treatment groups (n=5): (i) DMSO, (ii) Paclitaxel (PTX), 5 mg/kg, (iii) compound 37b, 5 mg/kg, (iv) compound 37b, 10 mg/kg, (v) compound 48, 5 mg/kg, or (vi) compound 48, 10 mg/kg. When control animals (DMSO) began to appear tumor ulceration (25 days), all animals in the experiment were sacrificed and photographed.
FIG. 12B are photographs of the tumor from sacrificed animals of different treatment groups after 25 days. FIG. 12C is a graph showing the tumor weight of xenograft tumors versus time after s.c. injection of DMSO, PTX, compound 37b, or compound 48. Data are shown as mean±SEM. * P≤0.05 versus DMSO group. FIG. 12D are photographs showing the morphological observation of mice tissue treated with DMSO, paclitaxel, compound 37b, or compound 48 with H&E staining on heart, liver, kidney, lungs, and spleen tissues (200×).

[8] = system: cytosolic hydroxyl radical in MDA-MB-231 cells; test: HKOH-1r hydroxyl radical detection in MDA-MB-231 cells; type: cell-based; conditions: about 5.5 h after addition
Description: FIG. 10 is a bar graph showing the relative mean fluorescence intensities of cells with HKOH-1r measured from the confocal images of MDA-MB-231 cells after treatment with compounds 48 and 37b, respectively. Scale bars represent 50 μm. Data are mean±s.e.m., n=20 cells for HKOH-1. Statistical significance was determined as ***P≤0.01 by Student's t test.
Reactive oxygen species is associated with the event of ferroptotic cell death. Oxidative stress induced by 48 and 37b can be indicated by the fluorogenic probe, HKOH-1r, that emits at 520 nm upon oxidation by cytosolic hydroxyl radical. By using HKOH-1r, it is possible to specify the type of ROS that tetraoxanes can produce in MDA-MB-231 cells.
Confocal images of MDA-MB-231 cells after tetraoxane treatment were captured and the relative mean fluorescence intensities of cells with HKOH-1r were quantified (FIG. 10). […] This phenomenon is consistent with one of the features of ferroptosis.

[9] = system: HEYA8 CSCs; test: Protective effect of Q-VD-OPh, DFX and Fer-1 on HEYA8 CSCs; type: cell-based; conditions: for cell death pathway: HEYA8 cancer cells and CSCs
Description: FIGS. 5A-5B are bar graphs showing the protective effect of Q-VD-OPh, deferasirox (DFX) and ferrostatin-1 (Fer-1) on HeyA8 cancer stem cells (FIG. 5A) and HeyA8 spheres (FIG. 5B) after treatment with compound 48 and compound 37b, respectively, for 24 h. *P≤0.05, **P≤0.01 versus non-pretreated group. Data are plotted as the mean±SD, n=3 biologically independent samples. N.S., no statistically significant change. All P values were determined using two-tailed Student's t-test.

[10] = system: HEK293 cells; test: MTT viability assay, HEK293 cells; type: cell-based; conditions: Homo sapiens, HEK293, 48 h incubation, mean, n = 3, read-out: IC50 against HEK293 cells
[11] = system: HepG2 cells; test: MTT viability assay, HepG2 cells; type: cell-based, human
Description: as §1

[12] = MTT, 48 h incubation, mean, n = 3, read-out: IC50 against NIH3T3 cells
[13] = Table 12b, read-out: IC50 NIH3T3

Row | SMILES | IC50 [2, 12] | IC50 [2, 13] | IC50 [3] | IC50 [4] | IC50 [5] | tolerability of regimens in tested animals [6] | abnormal behavior or weight loss during treatment period [6] | histopathological observations of liver, heart, kidney, spleen and lungs [7] | hydroxyl radical (HKOH-1r fluorescence) [8] | cell death pathway [9] | also measured
1 | CC(C)(C)C1CCC2(CC1)OOC1(CCC(OC(=O)NCCC[N+](C)(Cc3ccccc3)Cc3ccccc3)CC1)OO2.[I-] (centres unmarked) [Compound 48, N,N-dibenzyl-3-((((12-(tert-butyl)-7,8,15,16-tetraoxadispiro[5.2.59.26]hexadecan-3-yl)oxy)carbonyl)amino)-N-methylpropan-1-aminium iodide] | 29 ± 5.7 µM | 29 ± 5.7 µM | 28.2 µM | 5.2 ± 0.4 µM | 4.4 ± 0.6 µM | well-tolerated | no abnormal behavior or weight loss | no histological alterations | significant amount of hydroxyl radical was observed | ferroptosis | IC50 [1]: 1 µM; IC50 ([2]; Table 13, experimental data, MTT, 48 hrs, n = 3, read-out: IC50 NIH3T3): 29 ± 5.7 µM; tumor size ([6]; 10 mg/kg, HEYA8 CSC xenograft, 25 days): reduced the tumor size; tumor size ([7]; 5 mg/kg and 10 mg/kg, MDA-MB-231 xenograft, 25 days): reduced the tumor size; abnormal behavior or weight loss during treatment period ([7]; MDA-MB-231 xenograft mice, entire treatment period): no abnormal behavior or weight loss; effect of Fer-1 co-treatment on HEYA8 CSCs ([9]; 24 h treatment): majority of the CSCs remained unaffected; effect of deferasirox (DFX) on cell death in HEYA8 CSCs ([9]; 24 h treatment): rescue part of the cell death
2 | CC(C)(C)C1CCC2(CC1)OOC1(CCC(OC(=O)NCCC[P+](c3ccccc3)(c3ccccc3)c3ccccc3)CC1)OO2.[Br-] (centres unmarked) [Compound 37b, (3-((((12-(tert-butyl)-7,8,15,16-tetraoxadispiro[5.2.59.26]hexadecan-3-yl)oxy)carbonyl)amino)propyl)triphenylphosphonium bromide] | 4.6 µM | 4.6 ± 1.9 µM | 9.5 µM | 3.8 ± 0.9 µM | 3.4 ± 0.2 µM | well-tolerated | no abnormal behavior or weight loss | no histological alterations | significant amount of hydroxyl radical was observed | induced ferroptosis instead of apoptosis | IC50 [10]: 1.6 µM; IC50 ([11]; Homo sapiens, HepG2, MTT, 48 h incubation, mean, n = 3, read-out: IC50 against HepG2 cells): 0.7 µM; fold more cytotoxic than RKA182 for HepG2 cells ([11]; comparator RKA182): 36 fold; tumor growth compared with vehicle control ([6]; 5 mg/kg and 10 mg/kg, HEYA8 CSC xenograft, 25 days): effective in inhibiting tumor growth; tumor growth compared with vehicle control ([7]; 10 mg/kg, MDA-MB-231 xenograft, 25 days): effective in inhibiting tumor growth
